Laboratory results from article PMC12298007 (Pharmaceuticals, 2025).
Read-outs that look alike come from different tables or passages of the source.

Tests used:
[1] = Biodistribution, CHO-K1-GRPR + CHO-K1-PSMA dual xenograft mice; conditions: female, NOD SCID, mouse, intravenous, total radioactivity; for tissue uptake at 24.2 h / tissue uptake at 25.2 h: single tracer; for tissue uptake at 24.2 h / tissue uptake at 25.8 h / tissue uptake at 25.2 h / tissue uptake at 17.6 h: dual xenograft; for tissue uptake at 24.2 h: 24.2 h p.i.; for tissue uptake at 25.8 h: 1 nmol, Mouse #8, 25.8 h p.i., 1.00 nmol; for tissue uptake at 25.8 h / tissue uptake at 17.6 h: dual tracer; for tissue uptake at 25.2 h: 1.08 nmol, Mouse #6, 25.2 h p.i.; for tissue uptake at 17.6 h: 2.69 nmol, Mouse #9, 17.6 h p.i.; for tissue uptake: CHO-K1-GRPR xenograft tumor, Uptake in CHO-K1-GRPR xenografts, range
Procedure: Six-to-eight-week-old female immunodeficient mice (NOD SCID) were obtained from the Core facility laboratory animal breeding and husbandry of the Medical University of Vienna, Himberg, Austria. Animals were kept in individually ventilated cages with 12 h light–dark cycle. All experiments were approved by the Federal Ministry of Education, Science and Research, Republic of Austria (2020-0.253.820 and BMBWF-66.009/0122-V/3b/2019) and performed according to the guidelines from the Federation of the European Laboratory Animal Science Associations (FELASA). After an acclimatization period of two weeks, animals were injected with 3 × 10^6 CHO-K1-GRPR cells in the right flank and 3 × 10^6 CHO-K1-PSMA cells in the left flank (3 × 10^6 in 100 µL serum-free medium each). It should be noted that approximately the same passage (±1 passage number) was used for inoculation for both cell lines to ensure similar cell viability, target incidence, and density in vivo. Tracer uptake (and thus target expression) was confirmed three days prior to inoculation in cell uptake experiments. […] Tumor growth and body weight were monitored daily. Animals were subjected to imaging after 1.5–2 weeks of tumor growth (final tumor volume of 100–800 mm^3). Endpoints were defined as rapid weight loss up to 20% body weight, tumor volume ≥ 1000 mm^3, tumor volume < 1000 mm^3 with signs of necrosis (ulcerated surface), as well as clearly detectable apathy and pain upon touch.
Animals used in imaging studies were sacrificed at different time points post injectionem (p.i.) after the last imaging time point by cervical dislocation under isofluorane anesthesia. Selected organs were removed and weighed, and organ activities were measured in a γ-counter. For animals in which a dual-tracer cocktail was administered, the organs were measured several times over a period of 2–3 weeks to use these datasets in specific calculation methods (Section 3.6 in the SI) to obtain the correct activity for each individual radionuclide at the start of the measurement series.
[99mTc]Tc-PSMA-I&S or both (dual tracer cocktail) were injected into the tail vein of tumor
xenograft-bearing female NOD SCID mice. They were sacrificed by cervical dislocation under
isofluoran anesthesia at different time points post injectionem (p.i.) after the last imaging time
point. Selected organs were removed, weighed and organ activities measured in a γ-counter.

[2] = Biodistribution, PC-3 xenograft mice; assay type: in vivo, NOD SCID mice; conditions: female, NOD SCID, intravenous, total radioactivity; for tissue uptake at 7.3 h: Mouse #2, 7.3 h p.i., 1.43 nmol; for tissue uptake at 7.3 h / tissue uptake at 4 h / tissue uptake at 25.1 h: single tracer, PC-3 xenograft; for tissue uptake at 4 h: Mouse #3, 4 h p.i., 1.49 nmol; for tissue uptake at 25.1 h: Mouse #1, 25.1 h p.i., 1.34 nmol
Source text: (§1) Tumor growth and body weight were monitored daily. […]
(§2) 3.6.1 Biodistribution studies
(§3) xenograft-bearing female NOD SCID mice. […]

PC-3 xenograft = assay: Biodistribution, PC-3 xenograft mice; assay type: in vivo, NOD SCID mice; conditions: single tracer, PC-3 xenograft
Source text: as §1, §2, §3

PC-3 xenografts = test system: PC-3 xenografts; parameters: method as in Mansi et al. [37]; conditions: 24 h p.i.; female nude mice; i.v. 10 pmol; n = 4; ref Mansi et al. [37]; cited from earlier work
[3] = CHO-K1-GRPR tumor, Biodistribution: CHO-K1-GRPR Tumor
[4] = CHO-K1-PSMA tumor, Biodistribution: CHO-K1-PSMA Tumor
[5] = adrenal, Biodistribution: Adrenal
[6] = kidney, Biodistribution: Kidney
[7] = muscle, Biodistribution: Muscle
[8] = pancreas, Biodistribution: Pancreas
[9] = spleen, Biodistribution: Spleen
[10] = stomach (empty), Biodistribution: Stomach (empty)
[11] = PC-3 tumor, read-out: Biodistribution: PC-3 Tumor
[12] = bone, read-out: Biodistribution: Bone
[13] = colon (empty), read-out: Biodistribution: Colon (empty)
[14] = intestine (empty), read-out: Biodistribution: Intestine (empty)
[15] = liver, read-out: Biodistribution: Liver
[16] = muscle, read-out: Biodistribution: Muscle
[17] = spleen, read-out: Biodistribution: Spleen
[18] = stomach (empty), read-out: Biodistribution: Stomach (empty)
[19] = Mouse #1, 25.1 h p.i., 1.34 nmol

CC(C)C[C@H](NC(=O)C[C@H](O)[C@H](CC(C)C)NC(=O)[C@H](Cc1c[nH]cn1)NC(=O)CNC(=O)[C@@H](NC(=O)[C@H](C)NC(=O)[C@H](Cc1c[nH]c2ccccc12)NC(=O)[C@H](CCC(N)=O)NC(=O)[C@@H](Cc1ccccc1)NC(=O)CN1CCC(NC(=O)CN2CCN(CC(=O)O)CCN(CC(=O)O)CCN(CC(=O)O)CC2)CC1)C(C)C)C(N)=O [[^111In]In-RM2, metal not drawn]
tissue uptake at 24.2 h ([1]; CHO-K1-GRPR tumor, 0.37 nmol, Biodistribution: CHO-K1-GRPR Tumor, Mouse #5, 0.37 nmol): 0.51 %ID/g | tissue uptake at 24.2 h ([1]; CHO-K1-GRPR tumor, 0.58 nmol, Biodistribution: CHO-K1-GRPR Tumor, Mouse #4, 0.58 nmol): 0.28 %ID/g | tissue uptake at 25.8 h [1, 3]: 0.38 %ID/g | tissue uptake at 25.2 h [1, 3]: 0.33 %ID/g | tissue uptake at 24.2 h ([1]; CHO-K1-GRPR tumor, 1.41 nmol, Biodistribution: CHO-K1-GRPR Tumor, Mouse #7, 1.41 nmol): 0.06 %ID/g | tissue uptake at 17.6 h [1, 3]: 0.26 %ID/g | tissue uptake ([1]; dual-tracer mice #8 and #9): 0.26 to 0.38 %ID/g | tissue uptake ([1]; single-tracer mice #4–#7): 0.06 to 0.51 %ID/g | tissue uptake at 24.2 h ([1]; CHO-K1-PSMA tumor, 0.37 nmol, Biodistribution: CHO-K1-PSMA Tumor, Mouse #5, 0.37 nmol): 0.08 %ID/g | tissue uptake at 25.8 h [1, 4]: 0.08 %ID/g | tissue uptake at 25.2 h [1, 4]: 0.09 %ID/g | tissue uptake at 24.2 h ([1]; CHO-K1-PSMA tumor, 1.41 nmol, Biodistribution: CHO-K1-PSMA Tumor, Mouse #7, 1.41 nmol): 0.08 %ID/g | tissue uptake at 17.6 h [1, 4]: 0.09 %ID/g | tissue uptake at 24.2 h ([1]; adrenal, 0.37 nmol, Biodistribution: Adrenal, Mouse #5, 0.37 nmol): 0.33 %ID/g | tissue uptake at 24.2 h ([1]; adrenal, 0.58 nmol, Biodistribution: Adrenal, Mouse #4, 0.58 nmol): 0.12 %ID/g | tissue uptake at 25.2 h [1, 5]: 0.16 %ID/g | tissue uptake at 24.2 h ([1]; adrenal, 1.41 nmol, Biodistribution: Adrenal, Mouse #7, 1.41 nmol): 0.08 %ID/g | tissue uptake at 17.6 h [1, 5]: 0.12 %ID/g | tissue uptake at 25.8 h ([1]; blood, Biodistribution: Blood): 0.02 %ID/g | tissue uptake at 25.2 h ([1]; blood, Biodistribution: Blood): 0.01 %ID/g | tissue uptake at 24.2 h ([1]; blood, 1.41 nmol, Biodistribution: Blood, Mouse #7, 1.41 nmol): 0.01 %ID/g | tissue uptake at 17.6 h ([1]; blood, Biodistribution: Blood): 0.02 %ID/g | tissue uptake at 24.2 h ([1]; bone, 0.37 nmol, Biodistribution: Bone, Mouse #5, 0.37 nmol): 0.04 %ID/g | tissue uptake at 24.2 h ([1]; bone, 0.58 nmol, Biodistribution: Bone, Mouse #4, 0.58 nmol): 0.04 %ID/g | tissue uptake at 25.8 h ([1]; bone, Biodistribution: Bone): 0.06 %ID/g | tissue uptake at 25.2 h ([1]; bone, Biodistribution: Bone): 0.06 %ID/g | tissue uptake at 24.2 h ([1]; bone, 1.41 nmol, Biodistribution: Bone, Mouse #7, 1.41 nmol): 0.04 %ID/g | tissue uptake at 24.2 h ([1]; colon (empty), 0.37 nmol, Biodistribution: Colon (empty), Mouse #5, 0.37 nmol): 0.08 %ID/g | tissue uptake at 24.2 h ([1]; colon (empty), 0.58 nmol, Biodistribution: Colon (empty), Mouse #4, 0.58 nmol): 0.04 %ID/g | tissue uptake at 25.8 h ([1]; colon (empty), Biodistribution: Colon (empty)): 0.04 %ID/g | tissue uptake at 24.2 h ([1]; heart, 0.58 nmol, Biodistribution: Heart, Mouse #4, 0.58 nmol): 0.02 %ID/g | tissue uptake at 24.2 h ([1]; heart, 1.41 nmol, Biodistribution: Heart, Mouse #7, 1.41 nmol): 0.02 %ID/g | tissue uptake at 24.2 h ([1]; intestine (empty), 0.37 nmol, Biodistribution: Intestine (empty), Mouse #5, 0.37 nmol): 0.06 %ID/g | tissue uptake at 24.2 h ([1]; intestine (empty), 1.41 nmol, Biodistribution: Intestine (empty), Mouse #7, 1.41 nmol): 0.04 %ID/g | tissue uptake at 17.6 h ([1]; intestine (empty), Biodistribution: Intestine (empty)): 0.04 %ID/g | tissue uptake at 24.2 h ([1]; kidney, 0.37 nmol, Biodistribution: Kidney, Mouse #5, 0.37 nmol): 1.42 %ID/g | tissue uptake at 24.2 h ([1]; kidney, 0.58 nmol, Biodistribution: Kidney, Mouse #4, 0.58 nmol): 1.14 %ID/g | tissue uptake at 25.8 h [1, 6]: 1.07 %ID/g | tissue uptake at 25.2 h [1, 6]: 1.69 %ID/g | tissue uptake at 24.2 h ([1]; kidney, 1.41 nmol, Biodistribution: Kidney, Mouse #7, 1.41 nmol): 1.34 %ID/g | tissue uptake at 17.6 h [1, 6]: 1.09 %ID/g | tissue uptake at 24.2 h ([1]; liver, 0.37 nmol, Biodistribution: Liver, Mouse #5, 0.37 nmol): 0.13 %ID/g | tissue uptake at 24.2 h ([1]; liver, 0.58 nmol, Biodistribution: Liver, Mouse #4, 0.58 nmol): 0.1 %ID/g | tissue uptake at 25.8 h ([1]; liver, Biodistribution: Liver): 0.28 %ID/g | tissue uptake at 25.2 h ([1]; liver, Biodistribution: Liver): 0.2 %ID/g | tissue uptake at 24.2 h ([1]; liver, 1.41 nmol, Biodistribution: Liver, Mouse #7, 1.41 nmol): 0.17 %ID/g | tissue uptake at 17.6 h ([1]; liver, Biodistribution: Liver): 0.13 %ID/g | tissue uptake at 25.8 h ([1]; lung, Biodistribution: Lung): 0.04 %ID/g | tissue uptake at 24.2 h ([1]; lung, 1.41 nmol, Biodistribution: Lung, Mouse #7, 1.41 nmol): 0.04 %ID/g | tissue uptake at 24.2 h ([1]; muscle, 0.37 nmol, Biodistribution: Muscle, Mouse #5, 0.37 nmol): 0.01 %ID/g | tissue uptake at 24.2 h ([1]; muscle, 0.58 nmol, Biodistribution: Muscle, Mouse #4, 0.58 nmol): 0.01 %ID/g | tissue uptake at 25.8 h [1, 7]: 0.01 %ID/g | tissue uptake at 25.2 h [1, 7]: 0.02 %ID/g | tissue uptake at 24.2 h ([1]; muscle, 1.41 nmol, Biodistribution: Muscle, Mouse #7, 1.41 nmol): 0.01 %ID/g | tissue uptake at 17.6 h [1, 7]: 0.01 %ID/g | tissue uptake at 24.2 h ([1]; pancreas, 0.37 nmol, Biodistribution: Pancreas, Mouse #5, 0.37 nmol): 0.1 %ID/g | tissue uptake at 24.2 h ([1]; pancreas, 0.58 nmol, Biodistribution: Pancreas, Mouse #4, 0.58 nmol): 0.07 %ID/g | tissue uptake at 25.8 h [1, 8]: 0.07 %ID/g | tissue uptake at 25.2 h [1, 8]: 0.06 %ID/g | tissue uptake at 24.2 h ([1]; pancreas, 1.41 nmol, Biodistribution: Pancreas, Mouse #7, 1.41 nmol): 0.04 %ID/g | tissue uptake at 17.6 h [1, 8]: 0.04 %ID/g | tissue uptake at 24.2 h ([1]; spleen, 0.37 nmol, Biodistribution: Spleen, Mouse #5, 0.37 nmol): 0.08 %ID/g | tissue uptake at 24.2 h ([1]; spleen, 0.58 nmol, Biodistribution: Spleen, Mouse #4, 0.58 nmol): 0.07 %ID/g | tissue uptake at 25.8 h [1, 9]: 0.25 %ID/g | tissue uptake at 25.2 h [1, 9]: 0.13 %ID/g | tissue uptake at 24.2 h ([1]; spleen, 1.41 nmol, Biodistribution: Spleen, Mouse #7, 1.41 nmol): 0.08 %ID/g | tissue uptake at 17.6 h [1, 9]: 0.1 %ID/g | tissue uptake at 24.2 h ([1]; stomach (empty), 0.37 nmol, Biodistribution: Stomach (empty), Mouse #5, 0.37 nmol): 0.04 %ID/g | tissue uptake at 25.8 h [1, 10]: 0.04 %ID/g | tissue uptake at 25.2 h [1, 10]: 0.04 %ID/g | tissue uptake at 7.3 h [2, 11]: 1.36 %ID/g | tissue uptake at 4 h [2, 11]: 2.75 %ID/g | tissue uptake at 4 h ([2]; adrenal, read-out: Biodistribution: Adrenal): 0.13 %ID/g | tissue uptake at 25.1 h [2, 12]: 0.07 %ID/g | tissue uptake at 4 h [2, 12]: 0.04 %ID/g | tissue uptake at 25.1 h [2, 13]: 0.04 %ID/g | tissue uptake at 7.3 h [2, 13]: 0.04 %ID/g | tissue uptake at 7.3 h ([2]; heart, read-out: Biodistribution: Heart): 0.02 %ID/g | tissue uptake at 25.1 h [2, 14]: 0.08 %ID/g | tissue uptake at 4 h [2, 14]: 0.08 %ID/g | tissue uptake at 7.3 h ([2]; kidney, read-out: Biodistribution: Kidney): 1.29 %ID/g | tissue uptake at 25.1 h [2, 15]: 0.17 %ID/g | tissue uptake at 7.3 h [2, 15]: 0.12 %ID/g | tissue uptake at 4 h [2, 15]: 0.22 %ID/g | tissue uptake ([2]; mouse, PC-3 xenograft tumor, 4-25.1 h p.i., range over mice, read-out: Uptake in PC-3 xenografts): 1.36 to 2.75 %ID/g | tissue uptake at 25.1 h [2, 16]: 0.01 %ID/g | tissue uptake at 7.3 h [2, 16]: 0.01 %ID/g | tissue uptake at 4 h [2, 16]: 0.01 %ID/g | tissue uptake at 25.1 h ([2]; pancreas, read-out: Biodistribution: Pancreas): 0.06 %ID/g | tissue uptake at 25.1 h [2, 17]: 0.16 %ID/g | tissue uptake at 7.3 h [2, 17]: 0.13 %ID/g | tissue uptake at 4 h [2, 17]: 0.1 %ID/g | tissue uptake at 7.3 h [2, 18]: 0.02 %ID/g | tissue uptake at 4 h [2, 18]: 0.09 %ID/g | Biodistribution: Kidney (PC-3 xenograft; [19]): 2.17 % ID/g | Biodistribution: PC-3 Tumor (PC-3 xenograft; [19]): 2.20 % ID/g | Biodistribution: Heart (PC-3 xenograft; Mouse #3, 4 h p.i., 1.49 nmol): 0.02 % ID/g | Biodistribution: Kidney (PC-3 xenograft; Mouse #3, 4 h p.i., 1.49 nmol): 2.20 % ID/g | Uptake in PC-3 xenografts (PC-3 xenografts): 6.84 ± 1.02 % ID/g
